Measurements as given in patent US4517003A, “N-acyl phosphoric triamide urease inhibitors and urease inhibited urea based fertilizer compositions” (Allied Corporation, priority 1983, dated 1985).
Read-outs that look alike come from different tables or passages of the source.

Legend:
[1] = target: T1, jack bean urease (Sigma, Type IX) (Canavalia ensiformis, UniProt P07374); assay: Jack bean urease inhibition (modified Bremner procedure, homogeneous solution); type: biochemical; settings: for inhibition at 0.01 µM: read-out: % Inhibition at Specific Inhibitor Concentrations 10^-8 M
T1 construct: purchased Sigma Type IX
Method: Efficacy tests were also conducted with jack bean urease. The procedure of Bremner (see L. A. Douglas and J. M. Bremner, Soil Biol. Biochem., 3, 859-62 (1970) and references therein) was modified by replacing the soil as the source of urease with commercial purified jack bean urease (Sigma, Type IX). The incubation then proceeds in homogeneous solution.
The prior art compound selected for comparative testing was N-(diaminophosphinyl)-p-chlorobenzamide, and the compounds selected for use in the composition of this invention are N-(diaminophosphinyl)-2,2,2-trichloroacetamide, N-(diaminophosphinyl)-2,2-dichloroacetamide, and N-(diaminophosphinyl)-2-chloroacetamide The test procedure employed was identical to that used in Example VII.

soil urease = assay: Urease inhibition efficacy test in soil; type: biochemical; settings: Cazenovia silt loam, pH 7.2, incubated at 25° C. for three days, triplicate
Method: Efficacy tests were conducted to evaluate the efficacy of certain representative phosphoric triamide compounds as urease inhibitors. The inhibition tests were run in a New York soil (Cazenovia silt loam, pH 7.2). […] The bottle was capped with perforated aluminum foil and incubated at 25° C. for three days prior to extraction with 100 mL of a 2M KCl solution containing 0.5 mg of phenylmercuric acetate. The extracts were then analyzed for remaining urea using an autoanalyzer. Percent inhibition was calculated as [formula] Where A is urea recovered from unincubated sample (urea added to soil and immediately extracted); B is urea recovered from inhibited sample; and C is urea recovered from the control (uninhibited sample).

soil nitrification = assay: Nitrification inhibition efficacy test in soil; settings: Cazenovia silt loam pH 7.3, 14 days at 25° C.; for % Inhibition at 40 ug per gram of soil, t14 (Inhibition of Soil Nitrification): diammonium phosphate applied after 14 days (t14); for % Inhibition at 40 ug per gram of soil, t0 (Inhibition of Soil Nitrification): diammonium phosphate applied simultaneously (t0)
Method: Efficacy tests were conducted to evaluate the efficacy of certain representative phosphoric triamide compounds as nitrification inhibitors. All compounds were evaluated in Cazenovia silt loam soil (pH 7.3). The evaluations consisted of applying either simultaneously (to) or after 14 days (t14) a solution of 6.00 mg (300 ug/g soil) of diammonium phosphate in 1 mL of water to triplicate 20 g samples of air dry soil contained in 250 mL square glass bottles that had been treated with a solution of either 0 or 0.800 mg (40 ug/g soil) of the test compound in 5 mL of water. Each bottle was capped with perforated aluminum foil, incubated for 14 days at 25° C. after diammonium phosphate application, and then extracted with 100 mL of 2M potassium chloride containing 0.5 mg (5 mg/L) of phenylmercuric acetate. Each extract was allowed to settle, and an aliquot was frozen and then analyzed for nitrate using an autoanalyzer. The percent inhibition obtained during the incubation was calculated by the formula: [formula] where A is the nitrate recovered from unincubated soil before diammonium phosphate addition; B is nitrate recovered from uninhibited soil; and C is nitrate recovered from inhibited soil.
The compounds selected for use in the composition of this invention are N-(diaminophosphinyl)-2,2,2-trichloroacetamide, N-(diaminophosphinyl)-2,2-dichloroacetamide, and N-(diaminophosphinyl)-2-chloroacetamide.

[2] = Solubility in ice-cold water (observation during work-up); type: physicochemical
Method: The titled compound was prepared in accordance with the procedure of Example I. Using 2-chloroacetamide (7.02 g, 75 mmol), phosphorus pentachloride (15.6 g, 75 mmol) and formic acid (2.9 mL, […]), were reacted to form 16.0 g of N-(dichlorophosphinyl)-2-chloroacetamide, which was reacted with anhydrous ammonia in ether to form N-(diaminophosphinyl)-2-chloroacetamide.

[3] = Table II, 10^-6 M inhibitor, jack bean urease, read-out: % Inhibition at Specific Inhibitor Concentration 10^-6 M
[4] = Table II, 10^-7 M inhibitor, jack bean urease, read-out: % Inhibition at Specific Inhibitor Concentration 10^-7 M
[5] = Table III (comparison with prior art), 10^-6 M inhibitor, jack bean urease, read-out: % Inhibition at Specific Inhibitor Concentrations 10^-6 M
[6] = Table III (comparison with prior art), 10^-7 M inhibitor, jack bean urease, read-out: % Inhibition at Specific Inhibitor Concentrations 10^-7 M

T1 sequence (P07374 whole entry, looked up): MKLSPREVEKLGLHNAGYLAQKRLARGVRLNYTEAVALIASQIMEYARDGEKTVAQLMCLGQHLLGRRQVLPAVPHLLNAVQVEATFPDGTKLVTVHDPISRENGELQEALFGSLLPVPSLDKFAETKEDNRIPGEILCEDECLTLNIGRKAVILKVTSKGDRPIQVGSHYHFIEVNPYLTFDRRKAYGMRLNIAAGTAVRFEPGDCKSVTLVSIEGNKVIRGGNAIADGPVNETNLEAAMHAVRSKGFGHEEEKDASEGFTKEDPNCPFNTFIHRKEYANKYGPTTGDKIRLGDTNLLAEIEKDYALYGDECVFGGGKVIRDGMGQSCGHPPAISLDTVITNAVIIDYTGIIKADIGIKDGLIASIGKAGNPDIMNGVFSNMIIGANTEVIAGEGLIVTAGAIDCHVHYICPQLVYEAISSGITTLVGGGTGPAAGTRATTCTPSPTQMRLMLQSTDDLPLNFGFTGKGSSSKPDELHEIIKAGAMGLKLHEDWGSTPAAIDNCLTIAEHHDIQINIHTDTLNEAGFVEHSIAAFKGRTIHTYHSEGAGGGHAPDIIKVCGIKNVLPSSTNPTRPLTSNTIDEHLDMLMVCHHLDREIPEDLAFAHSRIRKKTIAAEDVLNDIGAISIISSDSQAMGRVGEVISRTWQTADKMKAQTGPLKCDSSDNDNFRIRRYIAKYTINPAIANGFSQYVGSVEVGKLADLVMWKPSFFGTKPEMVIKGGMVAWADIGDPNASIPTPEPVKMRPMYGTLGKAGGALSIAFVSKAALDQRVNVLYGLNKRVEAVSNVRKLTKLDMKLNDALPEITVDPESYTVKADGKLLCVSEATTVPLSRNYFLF

| Structure (SMILES) | inhibition at 1 µM ([1]; read-out: % Inhibition at Specific Inhibitor Concentrations 10^-6 M) | inhibition at 0.1 µM ([1]; read-out: % Inhibition at Specific Inhibitor Concentrations 10^-7 M) | inhibition at 0.01 µM [1] | inhibition at 1 µM [1, 3] | % Inhibition at 40 ug per gram of soil (Inhibition of Soil Urease) (soil urease) | inhibition at 0.1 µM [1, 4] | inhibition at 1 µM [1, 5] | inhibition at 0.1 µM [1, 6] | % Inhibition at 40 ug per gram of soil, t14 (Inhibition of Soil Nitrification) (soil nitrification) | % Inhibition at 40 ug per gram of soil, t0 (Inhibition of Soil Nitrification) (soil nitrification) | Solubility in water [2] | inhibition at 0.01 µM ([1]; Table III (comparison with prior art), 10^-8 M inhibitor, jack bean urease) |
| --- | --- | --- | --- | --- | --- | --- | --- | --- | --- | --- | --- | --- |
| NP(N)(=O)NC(=O)c1ccc(Cl)cc1 [N-(Diaminophosphinyl)-p-chlorobenzamide, N-(diaminophosphinyl)-p-chlorobenzamide, reference compound] | 83% | 20% | 14% |  |  |  |  |  |  |  |  |  |
| N#CCC(=O)NP(N)(N)=O [Example V, N-(Diaminophosphinyl)-2-Cyanoacetamide] |  |  |  | 56% |  |  |  |  |  |  |  |  |
| NP(N)(=O)NC(=O)CCl [Example II, N-(Diaminophosphinyl)-2-chloroacetamide] |  |  |  | 100% | 83% | 81% | 100% | 50% | 0% | 2% | very soluble even in ice-cold water |  |
| NP(N)(=O)NC(=O)C(Cl)Cl [Example I, N-(Diaminophosphinyl)-2,2-dichloroacetamide] |  |  |  | 100% | 73% | 80 to 100% | 100% | 100% | 9% | 18% |  |  |
| COc1ccc(C(=O)NP(N)(N)=O)cc1 [N-(Diaminophosphinyl)-4-methoxybenzamide, N-(diaminophosphinyl)-4-methoxybenzamide, reference compound] |  |  |  |  |  |  |  |  | 13% | 4% |  |  |
| NP(N)(=O)NC(=O)C(Cl)(Cl)Cl [Example III, N-(Diaminophosphinyl)-2,2,2-trichloroacetamide] |  |  |  | 93 to 100% | 64% | 70% |  | 78% | 3% | 47% |  | 13% |
| NP(N)(=O)NC(=O)C(F)(F)F [IV, N-(Diaminophosphinyl)-2,2,2-trifluoroacetamide] |  |  |  | 100% | 52% | 22% |  |  |  |  |  |  |
